Structures can show the parent of a compound that is named as a salt.
SMILES | melting point
CCNc1nc2cc3c(cc2[n+]([O-])n1)CC(CO)C3 (stereo not drawn) [Compound 126, [3-(Ethylamino)-1-oxido-7,8-dihydro-6H-indeno[5,6-e][1,2,4]triazin-7-yl]methanol] | 150 °C
[O-][n+]1nc(NCCCN2CCOCC2)nc2cc3c(cc21)CCC3 [Compound 60, N-[3-(4-Morpholinyl)propyl]-7,8-dihydro-6H-indeno[5,6-e][1,2,4]triazin-3-amine 1-Oxide] | 139 to 141 °C
CN(C)C1Cc2cc3nc(N)n[n+]([O-])c3cc2C1 (stereo not drawn) [Compound 111, N^7,N^7-Dimethyl-7,8-dihydro-6H-indeno[5,6-e][1,2,4]triazine-3,7-diamine 1-Oxide] | 212 to 216 °C
[O-][n+]1nc(NCCN2CCCCC2)nc2ccc3c(c21)CCC3 [Compound 12, N-[2-(1-Piperidinyl)ethyl]-8,9-dihydro-7H-indeno[5,4-e][1,2,4]triazin-3-amine 1-Oxide] | 152 to 155 °C
Nc1nc2cc3c(cc2[n+]([O-])n1)CC(CO)C3 (stereo not drawn) [Compound 124, (3-Amino-1-oxido-7,8-dihydro-6H-indeno[5,6-e][1,2,4]triazin-7-yl)methanol] | 255 to 257 °C
[O-][n+]1nc(I)nc2cc3c(cc21)CC(CCOC1CCCCO1)C3 (stereo not drawn) [Compound 159, 3-Iodo-7-(2-(tetrahydro-2H-pyran-2-yloxy)ethyl)-7,8-dihydro-6H-indeno[5,6-e][1,2,4]triazine 1-Oxide] | 80 to 82 °C
COC1CN(CCNc2nc3cc4c(cc3[n+]([O-])n2)CCC4)C1 [Compound 34, N-[2-(3-Methoxy-1-azetidinyl)ethyl]-7,8-dihydro-6H-indeno[5,6-e][1,2,4]triazin-3-amine 1-Oxide] | 139 to 141 °C
CC1Cc2cc3nc(NCCN(C)C)n[n+]([O-])c3cc2C1 (stereo not drawn) [Compound 96, N^1,N^1-Dimethyl-N^2-(7-methyl-1 oxido-7,8-dihydro-6H-indeno[5,6-e][1,2,4]triazin-3-yl)-1,2-ethanediamine] | 119 to 121 °C
COC1CCN(CCCNc2nc3cc4c(cc3[n+]([O-])n2)CCC4)CC1 [Compound 58, N-[3-(4-Methoxy-1-piperidinyl)propyl]-7,8-dihydro-6H-indeno[5,6-e][1,2,4]triazin-3-amine 1-Oxide] | 120 to 121 °C
CN(C)CCNc1nc2ccc3c(c2[n+]([O-])n1)CCCC3 [Compound 172, N^1,N^1-Dimethyl-N^2-(1-oxido-7,8,9,10-tetrahydronaphtho[2,1-e][1,2,4]triazin-3-yl)-1,2-ethanediamine] | 151 to 153 °C
CC(C)(C)OP(=O)(OCCCc1n[n+]([O-])c2cc3c(cc2[n+]1[O-])CCC3)OC(C)(C)C [Compound 73, 3-(3-(Di-tert-butoxyphosphoryloxy)propyl)-7,8-dihydro-6H-indeno[5,6-e][1,2,4]triazine 1,4-Dioxide] | 129 to 131 °C
[O-][n+]1ncnc2cc3c(cc21)CCC3 [Compound 64, 7,8-Dihydro-6H-indeno[5,6-e][1,2,4]triazine 1-Oxide] | 130 to 131 °C
CN(C)CCNc1nc2ccc3c(c2[n+]([O-])n1)CCC3 [Compound 6, N^1,N^1-Dimethyl-N^2-(1-oxido-8,9-dihydro-7H-indeno[5,4-e][1,2,4]triazin-3-yl)-1,2-ethanediamine] | 186 to 190 °C
Nc1nc2cc3c(cc2[n+]([O-])n1)CCC3 [Compound 19, 7,8-Dihydro-6H-indeno[5,6-e][1,2,4]triazin-3-amine 1-Oxide] | 270 to 272 °C
CCc1nc2cc3c(cc2[n+]([O-])n1)CC(CN1CCOCC1)C3 (stereo not drawn) [Compound 143, 3-Ethyl-7-(4-morpholinylmethyl)-7,8-dihydro-6H-indeno[5,6-e][1,2,4]triazine 1-Oxide] | 111 to 112 °C
CC1Cc2cc3nc(CCCN4CCOCC4)n[n+]([O-])c3cc2C1 (stereo not drawn) [Compound 102, 7-Methyl-3-[3-(4-morpholinyl)propyl]-7,8-dihydro-6H-indeno[5,6-e][1,2,4]triazine 1-Oxide] | 70 to 71 °C
[O-][n+]1nc(NCCCCN2CCOCC2)nc2cc3c(cc21)CCC3 [Compound 62, N-[4-(4-Morpholinyl)butyl]-7,8-dihydro-6H-indeno[5,6-e][1,2,4]triazin-3-amine 1-Oxide] | 151 to 152 °C
Nc1nc2ccc3c(c2[n+]([O-])n1)CCCC3 [Compound 170, 7,8,9,10-Tetrahydronaphtho[2,1-e][1,2,4]triazin-3-amine 1-Oxide] | 271 °C (dec.)
COC1CCN(CCNc2nc3cc4c(cc3[n+]([O-])n2)CCC4)CC1 [Compound 42, N-[2-(4-Methoxy-1-piperidinyl)ethyl]-7,8-dihydro-6H-indeno[5,6-e][1,2,4]triazin-3-amine 1-Oxide] | 131 to 133 °C
CCCN(CCC)CCNc1nc2cc3c(cc2[n+]([O-])n1)CCC3 [Compound 28, N^1-(1-Oxido-7,8-dihydro-6H-indeno[5,6-e][1,2,4]triazin-3-yl)-N^2,N^2-dipropyl-1,2-ethanediamine] | 95 to 97 °C
[O-][n+]1nc(NCCCO)nc2cc3c(cc21)CCC3 [Compound 50, 3-[(1-Oxido-7,8-dihydro-6H-indeno[5,6-e][1,2,4]triazin-3-yl)amino]-1-propanol] | 190 to 190.5 °C
CCN(CC)CCNc1nc2cc3c(cc2[n+]([O-])n1)CCC3 [Compound 26, N^1-(1-Oxido-7,8-dihydro-6H-indeno[5,6-e][1,2,4]triazin-3-yl)-N^2,N^2-diethyl-1,2-ethanediamine] | 109 to 112 °C
[O-][n+]1nc(I)nc2cc3c(cc21)CC(CCO)C3 (stereo not drawn) [Compound 158, 2-(3-Iodo-1-oxido-7,8-dihydro-6H-indeno[5,6-e][1,2,4]triazin-7-yl)ethanol] | 96 to 99 °C
COCCCN(C)CCNc1nc2cc3c(cc2[n+]([O-])n1)CCC3 [Compound 32, N^1-(3-Methoxypropyl)-N^1-methyl-N^2-(1-oxido-7,8-dihydro-6H-indeno[5,6-e][1,2,4]triazin-3-yl)-1,2-ethanediamine] | 41 to 42 °C

Other lines, results leading:

melting point | SMILES
241 to 246 °C | Nc1nc2cc3c(cc2[n+]([O-])n1)OCC3 [Compound 195, 6,7-Dihydrofuro[3,2-g][1,2,4]benzotriazin-3-amine 1-Oxide]
170 to 175 °C | CN1CCc2cc3c(cc2C1)nc(N)n[n+]3[O-] [Compound 256, 7-Methyl-6,7,8,9-tetrahydro[1,2,4]triazino[6,5-g]isoquinolin-3-amine 1-Oxide]
117 to 121 °C | CCc1n[n+]([O-])c2c3c(ccc2[n+]1[O-])CCN(C)C3 [Compound 265, 3-Ethyl-9-methyl-7,8,9,10-tetrahydro[1,2,4]triazino[5,6-h]isoquinoline 1,4-Dioxide]
192 to 194 °C | [O-][n+]1nc(I)nc2cc3c(cc21)CCO3 [Compound 213, 3-Iodo-7,8-dihydrobenzofuro[6,5-e][1,2,4]triazine 1-Oxide]
230 °C | CCN1Cc2cc3c(cc2C1)[n+]([O-])c(N)n[n+]3[O-] (as salt: hydrochloride) [Compound 250, 7-Ethyl-7,8-dihydro-6H-[1,2,4]triazino[5,6-f]isoindol-3-amine 1,4-Dioxide]
270 to 274 °C | Nc1nc2cc3c(cc2[n+]([O-])n1)CCCC3 [Compound 175, 6,7,8,9-Tetrahydronaphtho[2,3-e][1,2,4]triazin-3-amine 1-Oxide]
192 to 194 °C | CN(C)CCNc1nc2cc3c(cc2[n+]([O-])n1)OCO3 [Compound 223, N^1,N^1-Dimethyl-N^2-(1-oxido[1,3]dioxolo[4,5-g][1,2,4]benzotriazin-3-yl)-1,2-ethanediamine]
151 to 152 °C | [O-][n+]1nc(NCCCN2CCOCC2)nc2cc3c(cc21)OCCC3 [Compound 243, N-[3-(4-Morpholinyl)propyl]-7,8-dihydro-6H-chromeno[6,7-e][1,2,4]triazin-3-amine 1-Oxide]
261 to 265 °C | Nc1nc2cc3c(cc2[n+]([O-])n1)CCCCC3 [Compound 186, 7,8,9,10-Tetrahydro-6H-cyclohepta[g][1,2,4]benzotriazin-3-amine 1-Oxide]
153 to 157 °C | CN(C)CCNc1nc2cc3c(cc2[n+]([O-])n1)OCC3 [Compound 197, N^1,N^1-Dimethyl-N^2-(1-oxido-6,7-dihydrofuro[3,2-g][1,2,4]benzotriazin-3-yl)-1,2-ethanediamine]
163 to 165 °C | CN(C)CCNc1nc2cc3c(cc2[n+]([O-])n1)CCO3 [Compound 207, N^1,N^1-Dimethyl-N^2-(1-oxido-7,8-dihydrofuro[2,3-g][1,2,4]benzotriazin-3-yl)-1,2-ethanediamine]
99 to 102 °C | CCc1nc2ccc3c(c2[n+]([O-])n1)CN(C)CC3 [Compound 264, 3-Ethyl-9-methyl-7,8,9,10-tetrahydro[1,2,4]triazino[5,6-h]isoquinoline 1 Oxide]
179 °C (dec.) | CN1CCc2cc3c(cc2C1)nc(Cl)n[n+]3[O-] [Compound 257, 3-Chloro-7-methyl-6,7,8,9-tetrahydro[1,2,4]triazino[6,5-g]isoquinoline 1-Oxide]
193 to 196 °C | CCNc1nc2cc3c(cc2[n+]([O-])n1)CCN(C)C3 [Compound 258, N-Ethyl-7-methyl-6,7,8,9-tetrahydro[1,2,4]triazino[6,5-g]isoquinolin-3-amine 1-Oxide]
280 to 283 °C | Nc1nc2cc3c(cc2[n+]([O-])n1)OCCC3 [Compound 239, 7,8-Dihydro-6H-chromeno[6,7-e][1,2,4]triazin-3-amine 1-Oxide]
218 °C | CCN1Cc2cc3nc(N)n[n+]([O-])c3cc2C1 [Compound 249, 7-Ethyl-7,8-dihydro-6H-[1,2,4]triazino[5,6-f]isoindol-3-amine 1-Oxide]
200 to 205 °C | CN1CCc2ccc3nc(Cl)n[n+]([O-])c3c2C1 [Compound 263, 3-Chloro-9-methyl-7,8,9,10-tetrahydro[1,2,4]triazino[5,6-h]isoquinoline 1 Oxide]
119 to 120 °C | CN(C)CCNc1nc2ccc3c(c2[n+]([O-])n1)CCCO3 [Compound 236, N^1,N^1-Dimethyl-N^2-(1-oxido-9,10-dihydro-8H-chromeno[6,5-e][1,2,4]triazin-3-yl)-1,2-ethanediamine]
